In patent US20230111310A1, “CARBOXYLIC ACID DERIVATIVE-SUBSTITUTED IMINO ARYL COMPOUND, PREPARATION METHOD THEREFOR, HERBICIDAL COMPOSITION AND USE THEREOF” (Qingdao Kingagroot Chemical Compound Co., Ltd., priority 2020, published 2023):

What follows are compounds tested on Abutilon theophrasti (assay: Weeding effect in post-emergence stage). Conditions: Dose 15 g/ha; level of fresh weight growth control rate.
Type: in vivo
Excerpt: (§1) The activity level criteria for plant damage (i.e., growth control rate) are as follows:
(§2) Monocotyledonous and dicotyledonous weed seeds (Descurainia sophia, Capsella bursa-pastoris, Abutilon theophrasti, Galium aparine, Stellaria media, Lithospermum arvense, rorippa indica, Alopecurus aequalis, Alopecurus japonicus, Eleusine indica, Beckmannia syzigachne, Sclerochloa dura, Conyza Canadensis, Phleum paniculatum, Veronica didyma Tenore, Bromus japonicus, Aegilops tauschii, Phalaris arundinacea, Amaranthus retroflexus, Chenopodiaceae, Commelina communis, Sonchus arvensis, Convolvulus arvensis, Cirsium setosum, Bidens tripartita L., Solanum nigrum, Acalypha australis, Digitaria sanguinalis, Echinochloa crusgalli, Setaria viridis, Setaria glauca, Leptochloa chinensis, Monochoria vaginalis, Sagittaria trifolia, Scirpus juncoides, Cyperus rotundus, Cyperus iria, Cyperus difformis, Fimbristylis, Portulaca oleracea, Xanthium sibiricum, Pharbitis nil, etc.) and major crop seeds (wheat, corn, rice, soybean, cotton, oilseed rape, millet, sorghum, potato, sesame, ricinus, etc.) were placed in plastic pots filled with soil, then covered with 0.5-2 cm of soil, allowed to grow in a good greenhouse environment. After 2 weeks of sowing, the test plants were treated in the 2-3 leaf stage. The tested compounds of the present invention were respectively dissolved in acetone, then added with Tween 80 and 1.5 liter/ha of emulsifiable concentrate of methyl oleate as synergist, diluted with a certain amount of water to obtain a solution with a certain concentration, and sprayed with a spray tower onto the plants. After the application, the plants were cultured for 3 weeks in the greenhouse, and then the experimental results of the weeding were counted. […]
`CC(O/N=C/c1cc(-n2c(=O)n(C)c(=S)n(C)c2=O)c(F)cc1Cl)C(=O)OCCCC(F)(F)F` (racemic) [Compound 12] was tested, and the “Weeding effect in post-emergence stage, Abutilon theophrasti” value (“Weeding effect … Abutilon theophrasti” below) was 5 (Level 5: growth control rate is above 85%). With `COCCOC(=O)C(C)O/N=C/c1cc(-n2c(=O)n(C)c(=S)n(C)c2=O)c(F)cc1Cl` (racemic) [Compound 14] the “Weeding effect … Abutilon theophrasti” value was 5 (Level 5: growth control rate is above 85%). With `CCOC(=O)COC(=O)C(C)O/N=C/c1cc(-n2c(=O)n(C)c(=S)n(C)c2=O)c(F)cc1Cl` (racemic) [Compound 17] the “Weeding effect … Abutilon theophrasti” value was 5 (Level 5: growth control rate is above 85%). With `CCOC(=O)C(C)O/N=C/c1cc(-n2c(=O)n(C)c(=S)n(C)c2=O)c(F)cc1C(F)(F)F` (racemic) [Compound 86] the “Weeding effect … Abutilon theophrasti” value was 5 (Level 5: growth control rate is above 85%). For `COC(=O)C(C)O/N=C/c1cc(-n2c(=O)n(C)c(=S)n(C)c2=O)c(F)cc1C#N` (racemic) [Compound 87], the “Weeding effect … Abutilon theophrasti” value was 5 (Level 5: growth control rate is above 85%). For `CCOC(=O)C(C)O/N=C/c1cc(-n2c(=O)n(C)c(=S)n(C)c2=O)c(F)cc1C#N` (racemic) [Compound 88], the “Weeding effect … Abutilon theophrasti” value was 5 (Level 5: growth control rate is above 85%).

These compounds were tested on Alopecurus japonicus (assay: Weeding effect in post-emergence stage). Conditions: Dose 15 g/ha; level of fresh weight growth control rate.
Type: in vivo
Excerpt: as §1, §2
For `CC(O/N=C/c1cc(-n2c(=O)n(C)c(=S)n(C)c2=O)c(F)cc1Cl)C(=O)OCCCC(F)(F)F` (racemic) [Compound 12], the “Weeding effect in post-emergence stage, Alopecurus japonicus” value (shortened to “Weeding effect … Alopecurus japonicus”) was 5 (Level 5: growth control rate is above 85%). For `COCCOC(=O)C(C)O/N=C/c1cc(-n2c(=O)n(C)c(=S)n(C)c2=O)c(F)cc1Cl` (racemic) [Compound 14], the “Weeding effect … Alopecurus japonicus” value was 4 (Level 4: growth control rate is greater than or equal to 60% and less than 85%). With `CCOC(=O)COC(=O)C(C)O/N=C/c1cc(-n2c(=O)n(C)c(=S)n(C)c2=O)c(F)cc1Cl` (racemic) [Compound 17] the “Weeding effect … Alopecurus japonicus” value was 5 (Level 5: growth control rate is above 85%). In the case of `CCOC(=O)C(C)O/N=C/c1cc(-n2c(=O)n(C)c(=S)n(C)c2=O)c(F)cc1C(F)(F)F` (racemic) [Compound 86], the “Weeding effect … Alopecurus japonicus” value is reported as 3 (Level 3: growth control rate is greater than or equal to 40% and less than 60%). With `COC(=O)C(C)O/N=C/c1cc(-n2c(=O)n(C)c(=S)n(C)c2=O)c(F)cc1C#N` (racemic) [Compound 87] the “Weeding effect … Alopecurus japonicus” value was 5 (Level 5: growth control rate is above 85%). With `CCOC(=O)C(C)O/N=C/c1cc(-n2c(=O)n(C)c(=S)n(C)c2=O)c(F)cc1C#N` (racemic) [Compound 88] the “Weeding effect … Alopecurus japonicus” value was 5 (Level 5: growth control rate is above 85%).

The compounds below were run on Digitaria sanguinalis (assay: Weeding effect in post-emergence stage). Conditions: Dose 15 g/ha; level of fresh weight growth control rate.
Type: in vivo
Excerpt: as §1, §2
With `CC(O/N=C/c1cc(-n2c(=O)n(C)c(=S)n(C)c2=O)c(F)cc1Cl)C(=O)OCCCC(F)(F)F` (racemic) [Compound 12] the “Weeding effect in post-emergence stage, Digitaria sanguinalis” value (“Weeding effect … Digitaria sanguinalis” for short) was 5 (Level 5: growth control rate is above 85%). In the case of `COCCOC(=O)C(C)O/N=C/c1cc(-n2c(=O)n(C)c(=S)n(C)c2=O)c(F)cc1Cl` (racemic) [Compound 14], the “Weeding effect … Digitaria sanguinalis” value is reported as 5 (Level 5: growth control rate is above 85%). `CCOC(=O)COC(=O)C(C)O/N=C/c1cc(-n2c(=O)n(C)c(=S)n(C)c2=O)c(F)cc1Cl` (racemic) [Compound 17] was tested, and the “Weeding effect … Digitaria sanguinalis” value was 5 (Level 5: growth control rate is above 85%). For `CCOC(=O)C(C)O/N=C/c1cc(-n2c(=O)n(C)c(=S)n(C)c2=O)c(F)cc1C(F)(F)F` (racemic) [Compound 86], the “Weeding effect … Digitaria sanguinalis” value was 3 (Level 3: growth control rate is greater than or equal to 40% and less than 60%). In the case of `COC(=O)C(C)O/N=C/c1cc(-n2c(=O)n(C)c(=S)n(C)c2=O)c(F)cc1C#N` (racemic) [Compound 87], the “Weeding effect … Digitaria sanguinalis” value is reported as 5 (Level 5: growth control rate is above 85%). In the case of `CCOC(=O)C(C)O/N=C/c1cc(-n2c(=O)n(C)c(=S)n(C)c2=O)c(F)cc1C#N` (racemic) [Compound 88], the “Weeding effect … Digitaria sanguinalis” value is reported as 5 (Level 5: growth control rate is above 85%).

These compounds were tested on Eleusine indica (assay: Weeding effect in post-emergence stage). Conditions: Dose 15 g/ha; level of fresh weight growth control rate.
Type: in vivo
Excerpt: as §1, §2
`CC(O/N=C/c1cc(-n2c(=O)n(C)c(=S)n(C)c2=O)c(F)cc1Cl)C(=O)OCCCC(F)(F)F` (racemic) [Compound 12] was tested, and the “Weeding effect in post-emergence stage, Eleusine indica” value (“Weeding effect … Eleusine indica” for short) was 5 (Level 5: growth control rate is above 85%). For `COCCOC(=O)C(C)O/N=C/c1cc(-n2c(=O)n(C)c(=S)n(C)c2=O)c(F)cc1Cl` (racemic) [Compound 14], the “Weeding effect … Eleusine indica” value was 5 (Level 5: growth control rate is above 85%). `CCOC(=O)COC(=O)C(C)O/N=C/c1cc(-n2c(=O)n(C)c(=S)n(C)c2=O)c(F)cc1Cl` (racemic) [Compound 17] was tested, and the “Weeding effect … Eleusine indica” value was 5 (Level 5: growth control rate is above 85%). `CCOC(=O)C(C)O/N=C/c1cc(-n2c(=O)n(C)c(=S)n(C)c2=O)c(F)cc1C(F)(F)F` (racemic) [Compound 86] was tested, and the “Weeding effect … Eleusine indica” value was 5 (Level 5: growth control rate is above 85%). For `COC(=O)C(C)O/N=C/c1cc(-n2c(=O)n(C)c(=S)n(C)c2=O)c(F)cc1C#N` (racemic) [Compound 87], the “Weeding effect … Eleusine indica” value was 5 (Level 5: growth control rate is above 85%). With `CCOC(=O)C(C)O/N=C/c1cc(-n2c(=O)n(C)c(=S)n(C)c2=O)c(F)cc1C#N` (racemic) [Compound 88] the “Weeding effect … Eleusine indica” value was 5 (Level 5: growth control rate is above 85%).

The compounds below were run on Setaria viridis (assay: Weeding effect in post-emergence stage). Conditions: Dose 15 g/ha; level of fresh weight growth control rate.
Type: in vivo
Excerpt: as §1, §2
`CC(O/N=C/c1cc(-n2c(=O)n(C)c(=S)n(C)c2=O)c(F)cc1Cl)C(=O)OCCCC(F)(F)F` (racemic) [Compound 12] was tested, and the “Weeding effect in post-emergence stage, Setaria viridis” value (shortened to “Weeding effect … Setaria viridis”) was 5 (Level 5: growth control rate is above 85%). For `COCCOC(=O)C(C)O/N=C/c1cc(-n2c(=O)n(C)c(=S)n(C)c2=O)c(F)cc1Cl` (racemic) [Compound 14], the “Weeding effect … Setaria viridis” value was 5 (Level 5: growth control rate is above 85%). With `CCOC(=O)COC(=O)C(C)O/N=C/c1cc(-n2c(=O)n(C)c(=S)n(C)c2=O)c(F)cc1Cl` (racemic) [Compound 17] the “Weeding effect … Setaria viridis” value was 5 (Level 5: growth control rate is above 85%). `CCOC(=O)C(C)O/N=C/c1cc(-n2c(=O)n(C)c(=S)n(C)c2=O)c(F)cc1C(F)(F)F` (racemic) [Compound 86] was tested, and the “Weeding effect … Setaria viridis” value was 4 (Level 4: growth control rate is greater than or equal to 60% and less than 85%). `COC(=O)C(C)O/N=C/c1cc(-n2c(=O)n(C)c(=S)n(C)c2=O)c(F)cc1C#N` (racemic) [Compound 87] was tested, and the “Weeding effect … Setaria viridis” value was 5 (Level 5: growth control rate is above 85%). In the case of `CCOC(=O)C(C)O/N=C/c1cc(-n2c(=O)n(C)c(=S)n(C)c2=O)c(F)cc1C#N` (racemic) [Compound 88], the “Weeding effect … Setaria viridis” value is reported as 5 (Level 5: growth control rate is above 85%).

The compounds below were run on Echinochloa crusgalli (assay: Weeding effect in post-emergence stage). Conditions: Dose 15 g/ha; level of fresh weight growth control rate.
Type: in vivo
Excerpt: as §1
Monocotyledonous and dicotyledonous weed seeds (Descurainia sophia, Capsella bursa-pastoris, Abutilon theophrasti, Galium aparine, Stellaria media, Lithospermum arvense, rorippa indica, Alopecurus aequalis, Alopecurus japonicus, Eleusine indica, Beckmannia syzigachne, Sclerochloa dura, Conyza Canadensis, Phleum paniculatum, Veronica didyma Tenore, Bromus japonicus, Aegilops tauschii, Phalaris arundinacea, Amaranthus retroflexus, Chenopodiaceae, Commelina communis, Sonchus arvensis, Convolvulus arvensis, Cirsium setosum, Bidens tripartita L., Solanum nigrum, Acalypha australis, Digitaria sanguinalis, Echinochloa crusgalli, Setaria viridis, Setaria glauca, Leptochloa chinensis, Monochoria vaginalis, Sagittaria trifolia, Scirpus juncoides, Cyperus rotundus, Cyperus iria, Cyperus difformis, Fimbristylis, Portulaca oleracea, Xanthium sibiricum, Pharbitis nil, etc.) and major crop seeds (wheat, corn, rice, soybean, cotton, oilseed rape, millet, sorghum, potato, sesame, ricinus, etc.) were placed in plastic pots filled with soil, then covered with 0.5-2 cm of soil, allowed to grow in a good greenhouse environment. After 2 weeks of sowing, the test plants were treated in the 2-3 leaf stage. The tested compounds of the present invention were respectively dissolved in acetone, then added with Tween 80 and 1.5 liter/ha of emulsifiable concentrate of methyl oleate as synergist, diluted with a certain amount of water to obtain a solution with a certain concentration, and sprayed with a spray tower onto the plants. After the application, the plants were cultured for 3 weeks in the greenhouse, and then the experimental results of the weeding were counted. The doses of the used compounds were 500, 250, 125, 60, 30, 15, 7.5 g/ha, and the averages were obtained by repeating for three times.
`CC(O/N=C/c1cc(-n2c(=O)n(C)c(=S)n(C)c2=O)c(F)cc1Cl)C(=O)OCCCC(F)(F)F` (racemic) [Compound 12] was tested, and the “Weeding effect in post-emergence stage, Echinochloa crusgalli” value (“Weeding effect … Echinochloa crusgalli” below) was 5 (Level 5: growth control rate is above 85%). In the case of `COCCOC(=O)C(C)O/N=C/c1cc(-n2c(=O)n(C)c(=S)n(C)c2=O)c(F)cc1Cl` (racemic) [Compound 14], the “Weeding effect … Echinochloa crusgalli” value is reported as 5 (Level 5: growth control rate is above 85%). With `CCOC(=O)COC(=O)C(C)O/N=C/c1cc(-n2c(=O)n(C)c(=S)n(C)c2=O)c(F)cc1Cl` (racemic) [Compound 17] the “Weeding effect … Echinochloa crusgalli” value was 5 (Level 5: growth control rate is above 85%). `CCOC(=O)C(C)O/N=C/c1cc(-n2c(=O)n(C)c(=S)n(C)c2=O)c(F)cc1C(F)(F)F` (racemic) [Compound 86] was tested, and the “Weeding effect … Echinochloa crusgalli” value was 4 (Level 4: growth control rate is greater than or equal to 60% and less than 85%). With `COC(=O)C(C)O/N=C/c1cc(-n2c(=O)n(C)c(=S)n(C)c2=O)c(F)cc1C#N` (racemic) [Compound 87] the “Weeding effect … Echinochloa crusgalli” value was 5 (Level 5: growth control rate is above 85%). With `CCOC(=O)C(C)O/N=C/c1cc(-n2c(=O)n(C)c(=S)n(C)c2=O)c(F)cc1C#N` (racemic) [Compound 88] the “Weeding effect … Echinochloa crusgalli” value was 5 (Level 5: growth control rate is above 85%).
